Measurements as given in patent publication US20220009920A1 (GB005, Inc., priority 2020, published 2022).

Tests used:
Assay in all cases: Large panel kinase profiling
Type in all cases: biochemical
Conditions in all cases: 1 μM test article, 1 mM ATP
HCK = target: T1, HCK (Homo sapiens, UniProt P08631)
T1 construct: AssayQuant Technologies, Inc. (service provider)
Summary of the method: (§1)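 Activity is measured in real time from the CSox sensor's fluorescence at 485 nm after 360 nm excitation, sampled every minute. Assays run at 30° C. with 1 mM ATP and a single 1 μM compound dose.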

MAP3K5 = target: T2, MAP3K5 (Homo sapiens, UniProt Q99683)
T2 construct: AssayQuant Technologies, Inc. (service provider)
T2 sequence (Q99683 1-1374): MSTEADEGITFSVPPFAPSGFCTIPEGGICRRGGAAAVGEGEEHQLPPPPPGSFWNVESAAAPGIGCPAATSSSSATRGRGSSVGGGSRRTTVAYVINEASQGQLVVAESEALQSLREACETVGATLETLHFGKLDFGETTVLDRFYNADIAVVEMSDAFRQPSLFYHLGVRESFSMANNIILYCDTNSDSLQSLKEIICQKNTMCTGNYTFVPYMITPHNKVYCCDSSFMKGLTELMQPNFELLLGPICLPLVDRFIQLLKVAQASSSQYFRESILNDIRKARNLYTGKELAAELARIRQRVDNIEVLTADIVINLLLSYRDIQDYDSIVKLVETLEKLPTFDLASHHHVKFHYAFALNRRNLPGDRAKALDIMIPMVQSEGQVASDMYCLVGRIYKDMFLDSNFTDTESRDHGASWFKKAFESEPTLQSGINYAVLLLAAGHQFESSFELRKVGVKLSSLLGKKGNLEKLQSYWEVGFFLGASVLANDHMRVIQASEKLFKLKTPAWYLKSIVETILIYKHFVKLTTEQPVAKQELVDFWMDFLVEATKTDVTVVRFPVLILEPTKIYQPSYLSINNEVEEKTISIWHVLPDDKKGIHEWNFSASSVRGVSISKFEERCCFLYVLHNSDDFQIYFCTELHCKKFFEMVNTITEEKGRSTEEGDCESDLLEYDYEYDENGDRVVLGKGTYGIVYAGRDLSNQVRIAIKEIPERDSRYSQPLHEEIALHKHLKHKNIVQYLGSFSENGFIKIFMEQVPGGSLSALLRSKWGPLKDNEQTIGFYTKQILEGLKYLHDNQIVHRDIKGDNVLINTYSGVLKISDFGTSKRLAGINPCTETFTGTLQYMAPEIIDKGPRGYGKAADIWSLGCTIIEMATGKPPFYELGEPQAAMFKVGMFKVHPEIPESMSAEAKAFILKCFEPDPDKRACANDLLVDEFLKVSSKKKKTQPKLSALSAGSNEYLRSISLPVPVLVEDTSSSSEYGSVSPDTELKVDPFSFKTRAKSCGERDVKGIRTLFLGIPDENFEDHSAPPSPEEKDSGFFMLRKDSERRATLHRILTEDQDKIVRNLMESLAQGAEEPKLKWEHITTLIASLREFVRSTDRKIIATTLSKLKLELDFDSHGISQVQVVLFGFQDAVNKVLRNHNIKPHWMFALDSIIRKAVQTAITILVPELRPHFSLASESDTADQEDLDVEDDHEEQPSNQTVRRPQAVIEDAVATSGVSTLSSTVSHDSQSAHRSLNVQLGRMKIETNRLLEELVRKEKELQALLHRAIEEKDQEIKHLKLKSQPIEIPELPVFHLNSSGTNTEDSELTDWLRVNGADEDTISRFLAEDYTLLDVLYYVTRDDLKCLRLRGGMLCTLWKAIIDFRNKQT
Summary of the method: as §1

FGFR3 = FGFR3 (Homo sapiens, UniProt P22607)
Summary of the method: as §1

CDK1/B1 = target: T3, CDK1/B1 (Homo sapiens, UniProt P06493)
T3 construct: AssayQuant Technologies, Inc. (ran the panel)
Summary of the method: as §1

DYRK4 = target: T4, DYRK4 (Homo sapiens, UniProt Q9NR20)
T4 construct: AssayQuant Technologies, Inc. (service laboratory)
T4 sequence (Q9NR20 1-520): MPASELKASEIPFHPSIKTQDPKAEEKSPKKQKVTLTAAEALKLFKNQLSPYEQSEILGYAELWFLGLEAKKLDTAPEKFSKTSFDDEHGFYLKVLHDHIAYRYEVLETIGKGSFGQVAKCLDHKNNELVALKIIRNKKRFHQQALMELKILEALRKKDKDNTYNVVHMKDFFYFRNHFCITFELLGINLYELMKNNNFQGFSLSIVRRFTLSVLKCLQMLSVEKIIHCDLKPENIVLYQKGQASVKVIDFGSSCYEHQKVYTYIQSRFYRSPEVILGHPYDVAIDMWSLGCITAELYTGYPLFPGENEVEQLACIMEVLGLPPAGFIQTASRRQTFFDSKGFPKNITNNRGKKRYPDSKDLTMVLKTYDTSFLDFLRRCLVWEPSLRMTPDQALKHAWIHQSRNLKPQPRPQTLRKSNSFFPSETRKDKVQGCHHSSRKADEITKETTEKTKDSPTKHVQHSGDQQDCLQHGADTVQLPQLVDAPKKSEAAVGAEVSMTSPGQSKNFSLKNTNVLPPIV
Summary of the method: as §1

SRC = target: T5, SRC (Homo sapiens, UniProt P12931)
T5 construct: AssayQuant Technologies, Inc. (contract assay)
Summary of the method: as §1

FGFR3, sequence (P22607 23-806, species assumed): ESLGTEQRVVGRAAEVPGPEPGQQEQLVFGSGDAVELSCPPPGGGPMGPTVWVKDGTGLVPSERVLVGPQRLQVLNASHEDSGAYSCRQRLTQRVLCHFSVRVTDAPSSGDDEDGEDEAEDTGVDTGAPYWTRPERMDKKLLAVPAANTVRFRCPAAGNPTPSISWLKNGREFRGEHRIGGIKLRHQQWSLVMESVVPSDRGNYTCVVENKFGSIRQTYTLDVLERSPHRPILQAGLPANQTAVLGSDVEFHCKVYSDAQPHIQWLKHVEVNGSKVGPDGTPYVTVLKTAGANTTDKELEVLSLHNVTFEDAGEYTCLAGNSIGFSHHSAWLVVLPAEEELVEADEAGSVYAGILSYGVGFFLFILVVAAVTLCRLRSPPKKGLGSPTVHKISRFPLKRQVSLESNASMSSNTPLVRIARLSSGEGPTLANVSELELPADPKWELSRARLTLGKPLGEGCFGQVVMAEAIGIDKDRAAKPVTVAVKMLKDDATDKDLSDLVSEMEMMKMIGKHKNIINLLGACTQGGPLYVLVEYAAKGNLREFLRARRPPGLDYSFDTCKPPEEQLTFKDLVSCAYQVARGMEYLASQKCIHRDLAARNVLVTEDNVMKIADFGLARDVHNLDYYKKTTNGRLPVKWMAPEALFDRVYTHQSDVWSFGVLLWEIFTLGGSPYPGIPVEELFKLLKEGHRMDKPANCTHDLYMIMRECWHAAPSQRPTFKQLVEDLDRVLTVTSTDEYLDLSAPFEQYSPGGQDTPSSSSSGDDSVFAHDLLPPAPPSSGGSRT
T5 sequence (P12931 whole entry, species assumed): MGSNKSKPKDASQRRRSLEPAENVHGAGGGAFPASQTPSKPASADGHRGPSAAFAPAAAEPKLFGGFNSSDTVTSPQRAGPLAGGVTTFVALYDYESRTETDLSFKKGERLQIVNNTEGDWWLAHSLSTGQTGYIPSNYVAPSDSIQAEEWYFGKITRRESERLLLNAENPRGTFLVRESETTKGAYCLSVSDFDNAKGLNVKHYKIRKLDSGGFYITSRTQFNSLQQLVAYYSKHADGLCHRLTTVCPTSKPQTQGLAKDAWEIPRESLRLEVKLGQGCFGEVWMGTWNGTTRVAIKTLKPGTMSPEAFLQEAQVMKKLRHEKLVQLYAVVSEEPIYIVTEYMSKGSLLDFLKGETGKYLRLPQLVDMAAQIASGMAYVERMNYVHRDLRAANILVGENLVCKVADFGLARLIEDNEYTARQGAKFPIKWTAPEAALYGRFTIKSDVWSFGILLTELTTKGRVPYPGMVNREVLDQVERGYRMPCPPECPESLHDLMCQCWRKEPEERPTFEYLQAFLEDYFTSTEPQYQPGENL
T1 sequence (P08631 whole entry, species assumed): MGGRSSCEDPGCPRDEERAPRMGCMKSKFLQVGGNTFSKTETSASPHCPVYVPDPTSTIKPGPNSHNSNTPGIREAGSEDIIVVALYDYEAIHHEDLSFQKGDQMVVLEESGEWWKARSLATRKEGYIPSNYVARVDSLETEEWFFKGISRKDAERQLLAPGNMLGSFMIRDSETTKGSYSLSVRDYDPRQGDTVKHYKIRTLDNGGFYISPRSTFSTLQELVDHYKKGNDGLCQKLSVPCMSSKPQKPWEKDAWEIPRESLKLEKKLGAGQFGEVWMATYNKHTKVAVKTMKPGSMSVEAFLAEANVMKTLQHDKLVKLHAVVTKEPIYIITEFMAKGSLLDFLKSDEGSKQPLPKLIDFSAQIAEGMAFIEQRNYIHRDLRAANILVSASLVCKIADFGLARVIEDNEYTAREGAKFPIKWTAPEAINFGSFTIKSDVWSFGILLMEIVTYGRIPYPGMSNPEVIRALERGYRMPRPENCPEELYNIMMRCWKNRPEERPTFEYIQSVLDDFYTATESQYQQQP
T3 sequence (P06493 whole entry, species assumed): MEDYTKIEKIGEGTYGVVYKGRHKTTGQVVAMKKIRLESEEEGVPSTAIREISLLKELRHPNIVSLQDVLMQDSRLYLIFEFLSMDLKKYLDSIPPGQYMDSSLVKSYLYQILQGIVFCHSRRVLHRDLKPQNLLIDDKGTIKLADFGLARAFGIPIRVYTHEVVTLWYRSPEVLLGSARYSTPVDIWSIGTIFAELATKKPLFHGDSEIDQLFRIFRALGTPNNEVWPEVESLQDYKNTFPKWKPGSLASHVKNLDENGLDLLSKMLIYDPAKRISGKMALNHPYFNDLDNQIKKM
T3 sequence (P14635 whole entry partner, species assumed): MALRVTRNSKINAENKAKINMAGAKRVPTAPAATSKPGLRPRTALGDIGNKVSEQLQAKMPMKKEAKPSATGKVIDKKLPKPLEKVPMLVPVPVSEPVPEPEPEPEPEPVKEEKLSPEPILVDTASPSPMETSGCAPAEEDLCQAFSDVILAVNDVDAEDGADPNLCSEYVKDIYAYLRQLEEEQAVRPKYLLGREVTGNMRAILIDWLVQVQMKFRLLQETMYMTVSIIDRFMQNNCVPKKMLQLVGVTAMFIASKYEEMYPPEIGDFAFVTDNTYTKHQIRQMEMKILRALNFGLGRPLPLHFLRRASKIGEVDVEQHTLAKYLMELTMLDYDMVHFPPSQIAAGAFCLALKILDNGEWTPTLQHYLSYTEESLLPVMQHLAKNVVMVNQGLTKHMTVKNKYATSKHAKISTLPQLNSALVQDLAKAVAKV

Row | SMILES | inhibition at 1 µM (HCK) [%] | inhibition at 1 µM (MAP3K5) [%] | inhibition at 1 µM (FGFR3) [%] | inhibition at 1 µM (CDK1/B1) [%] | inhibition at 1 µM (DYRK4) [%] | inhibition at 1 µM (SRC) [%]
1 | C=CC(=O)N1CCCC(c2c(F)cc(C(N)=O)c3[nH]c4c(c23)CCCCC4)C1 (single isomer, unassigned) [Compound 5-6] | 6.8 | -10.4 | 24.2 | -13.7 | 23.2 | -28.3
2 | C=CC(=O)N1CCC[C@@H](c2c(F)cc(C(N)=O)c3[nH]c4c(c23)CCC4)C1 [Compound 10-2, (S)-8-(1-acryloylpiperidin-3-yl)-7-fluoro-1,2,3,4-tetrahydrocyclo-penta[b]indole-5-carboxamide] | -5.8 | 16.7 | 18.3 | -3.8 | -6.6 | -1.8
3 | C=CC(=O)N1CCC[C@@H](c2c(F)cc(C(N)=O)c3[nH]c4c(c23)CC2(CC4)CC2)C1 [Compound 6-2, (S)-5-(1-acryloylpiperidin-3-yl)-6-fluoro-1,2,4,9-tetrahydrospiro[carbazole-3,1′-cyclopropane]-8-carboxamide] | 2.8 | 20 | 10.5 | -9.5 | 15.4 | -7
